In the supplement of paper PMC11061612:

Experiments:
Assay in all cases: Bliss excess, mean over the matrix (fraction); higher = more synergy
[1] = system: SKG-IIIa (Cervical Carcinoma)
Outline: (§1)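 Cell lines in DMEM/F12 or RPMI with 10% FBS were plated in 1536-well plates, held 24 hours at 37°C, 5% CO2, then given two-drug dose matrices for 72 hours (DMSO typically 0.2%). Viability was read by CellTiter-Glo 2.0 luminescence and scaled as inhibition from 0 (vehicle wells) to 1 (blank wells). Combination Emax is the second-highest inhibition in the matrix; Bliss excess is observed combination effect minus expected EA + EB − EA·EB, EA and EB being single-agent effects.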

[2] = system: SK-CO-1 (Colorectal Carcinoma)
Outline: as §1

[3] = system: SUP-M2 (T-Cell Non-Hodgkin's Lymphoma)
Outline: as §1

[4] = system: RCC-JW (Kidney Carcinoma)
Outline: as §1

[5] = system: COR-L88 (Small Cell Lung Carcinoma)
Outline: as §1

[6] = system: IA-LM (Non-Small Cell Lung Carcinoma)
Outline: as §1

[7] = system: P30-OHK (B-Lymphoblastic Leukemia)
Outline: as §1

[8] = system: OAW-28 (Ovarian Carcinoma)
Outline: as §1

[9] = system: NCI-H1876 (Small Cell Lung Carcinoma)
Outline: as §1

AM-38 (Glioblastoma) = system: AM-38 (Glioblastoma)
Outline: as §1

[10] = system: Raji (Burkitt's Lymphoma)
Outline: as §1

[11] = system: CPC-N (Small Cell Lung Carcinoma)
Outline: as §1

[12] = system: SNU-423 (Hepatocellular Carcinoma)
Outline: as §1

[13] = system: P32-ISH (Burkitt's Lymphoma)
Outline: as §1

[14] = system: BxPC-3 (Pancreatic Carcinoma)
Outline: as §1

[15] = system: CL-11 (Colorectal Carcinoma)
Outline: as §1

[16] = system: NCI-H3118 (Head and Neck Carcinoma)
Outline: as §1

[17] = system: ZR-75-30 (Breast Carcinoma)
Outline: as §1

[18] = system: SNU-C2B (Colorectal Carcinoma)
Outline: as §1

NCI-H226 (Mesothelioma) = system: NCI-H226 (Mesothelioma)
Outline: as §1

Structure (SMILES) | Bliss excess [1] | Bliss excess [2] | Bliss excess [3] | Bliss excess [4] | Bliss excess [5] | Bliss excess [6] | Bliss excess [7] | Bliss excess [8] | Bliss excess [9] | Bliss excess (AM-38 (Glioblastoma)) | Bliss excess [10] | Bliss excess [11] | Bliss excess [12] | Bliss excess [13] | Bliss excess [14] | Bliss excess [15] | Bliss excess [16] | Bliss excess [17] | Bliss excess [18] | Bliss excess (NCI-H226 (Mesothelioma))
NC1(C(=O)N[C@@H](CCO)c2ccc(Cl)cc2)CCN(c2ncnc3[nH]ccc23)CC1 [Capivasertib] + C[C@@H]1COCCN1C2=NC(=NC(=C2)C3(CC3)[S@](=N)(=O)C)C4=C5C=CNC5=NC=C4 [AZD6738] (first compound max 10 µM, 7x7, partner max 10 µM) | -0.0602 | -0.0786 | 0.0523 | -0.0713 | -0.0456 | 0.008 | 0.0468 | 0.0005 | 0.0649 | -0.0121 | 0.0187 | -0.0117 | -0.0139 | 0.0277 | -0.0076 | -0.0376 | -0.0807 | -0.057 | 0.0158 | -0.0775
CC1(C)CCC(CN2CCN(c3ccc(C(=O)NS(=O)(=O)c4ccc(NCC5CCOCC5)c([N+](=O)[O-])c4)c(Oc4cnc5[nH]ccc5c4)c3)CC2)=C(c2ccc(Cl)cc2)C1 [Venetoclax] + Cc1cc2ncnn2cc1Nc1ncc2c(n1)n(C1CCOCC1)c(=O)n2C [AZD7648] (first compound max 1 µM, 7x7, partner max 10 µM) | 0.0161 | -0.018 | 0.0218 | -0.0431 | -0.0121 | 0.0086 | 0.0584 | 0.0005 | 0.0111 | -0.0098 | 0.0289 | -0.0219 | -0.111 | -0.0154 | -0.0374 | -0.0255 | -0.0369 | -0.0381 | 0.0034 | -0.0552
CN(C)CCCOc1ccc(-c2ccc3ncc4c(c3c2)n(C2CCOCC2)c(=O)n4C)cn1 [AZD0156] + C=CCn1c(=O)c2cnc(Nc3ccc(N4CCN(C)CC4)cc3)nc2n1-c1cccc(C(C)(C)O)n1 [AZD1775] (first compound max 1 µM, partner max 1 µM) | -0.0565 | -0.0523 | 0.0535 | -0.061 | -0.0013 | -0.0068 | 0.0179 | -0.0386 | 0.0171 | 0.0248 | -0.0278 | -0.0025 | -0.0554 | -0.011 | -0.0506 | -0.0547 | -0.0933 | -0.0398 | -0.0328 | -0.0862
COc1nnc2ccc(N3CCC(c4ccc(OCCN5CCN(C)C(=O)[C@H]5C)cc4)CC3)nn12 [AZD5153] + CN(CC[C@H](CSC1=CC=CC=C1)NC2=C(C=C(C=C2)S(=O)(=O)NC(=O)C3=CC=C(C=C3)N4CCC(CC4)[C@H](C5=CC=CC=C5C6=CC=C(C=C6)Cl)O)S(=O)(=O)C(F)(F)F)CCO [AZD4320] (first compound max 1 µM, 7x7, partner max 1 µM) | – | – | -0.0028 | – | – | – | -0.0062 | 0.0297 | 0.134 | 0.103 | 0.0146 | – | – | -0.0595 | – | 0.0136 | – | – | 0.0215 | –
CCc1c2c(nc3ccc(O)cc13)-c1cc3c(c(=O)n1C2)COC(=O)[C@]3(O)CC [SN-38] + O=C(c1cc(Cc2n[nH]c(=O)c3ccccc23)ccc1F)N1CCN(C(=O)C2CC2)CC1 [Olaparib] (first compound max 0.3 µM, 7x7, partner max 10 µM) | 0.0602 | 0.0147 | 0.0641 | 0.112 | 0.0785 | 0.053 | 0.0708 | – | – | -0.0023 | 0.0342 | 0.105 | -0.0025 | 0.0645 | -0.005 | 0.0626 | 0.106 | -0.0169 | 0.0556 | -0.0493
CC(=O)c1c(C)c2cnc(Nc3ccc(N4CCNCC4)cn3)nc2n(C2CCCC2)c1=O [Palbociclib] + CN(CC[C@H](CSC1=CC=CC=C1)NC2=C(C=C(C=C2)S(=O)(=O)NC(=O)C3=CC=C(C=C3)N4CCC(CC4)[C@H](C5=CC=CC=C5C6=CC=C(C=C6)Cl)O)S(=O)(=O)C(F)(F)F)CCO [AZD4320] (first compound max 10 µM, 7x7, partner max 1 µM) | – | – | 0.0414 | – | – | – | 0.0564 | -0.004 | -0.0286 | -0.0234 | -0.0122 | – | – | 0.0075 | – | 0.0021 | – | – | -0.0867 | –
C[C@@H](c1ccc2nccn2c1)n1nnc2ncc(-c3cnn(C)c3)nc21 [Savolitinib] + CN(CC[C@H](CSC1=CC=CC=C1)NC2=C(C=C(C=C2)S(=O)(=O)NC(=O)C3=CC=C(C=C3)N4CCC(CC4)[C@H](C5=CC=CC=C5C6=CC=C(C=C6)Cl)O)S(=O)(=O)C(F)(F)F)CCO [AZD4320] (first compound max 1 µM, 7x7, partner max 1 µM) | – | – | -0.058 | – | – | – | -0.0183 | -0.006 | -0.0256 | -0.0474 | -0.0168 | – | – | -0.022 | – | -0.0216 | – | – | -0.101 | –
